Measurements: PMC9505425, “Targeting of the Mitochondrial TET1 Protein by Pyrrolo[3,2-b]pyrrole Chelators” (International Journal of Molecular Sciences, 2022)
“And” between values parts separate entries of the source, which are not always exact repeats. Equal values may be shown once.

How the values were obtained:
Format in all cases: cell-based, human
U-118 MG cells = test: MTT cytotoxicity assay, U-118 MG; conditions: 48 h
Procedure, shortened: (§1)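 Cells seeded at 1.0 × 10^5/well, grown 24 h, then exposed 48 h to compounds at 0.1–20 μM (≤1% DMSO); U118-MG in DMEM, H1299 in RPMI 1640, both with 10% FBS, 37 °C. MTT 2 h, formazan in DMSO read at 570 nm; IC50 relative to untreated cells (100%).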

H-1299 cells = test: MTT cytotoxicity assay, H-1299
Procedure, shortened: as §1

[1] = MTT cytotoxicity assay, HF-P4; conditions: human, HF-P4 normal human dermal fibroblasts, repeats, read-out: Cell viability %
Procedure, shortened: (§2)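 Cells seeded at 1.0 × 10^5 per well, grown 24 h, then exposed 48 h to compounds at 0.1–20 μM (DMSO ≤1%). MTT added for 2 h, formazan dissolved in DMSO, absorbance read at 570 nm. IC50 calculated relative to untreated cells (100%).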

HF-P4 cells = test: MTT cytotoxicity assay, HF-P4; conditions: 48 h; for Cell viability %: repeats
Procedure, shortened: as §2

## CCN(CC)c1ccc(/C=N/NC(=O)c2ccc(-c3cc4c(cc(-c5ccc(C(=O)N/N=C/c6ccc(N(CC)CC)cc6O)cc5)n4-c4ccc(C)cc4)n3-c3ccc(C)cc3)cc2)c(O)c1 [Compound 2]
U-118 MG cells; Homo sapiens, U-118-MG, U-118 MG, 100 nM, repeats, read-out: Cell viability %
  viability at 0.1 µM: 82.5%
U-118 MG cells; Homo sapiens, U-118-MG, U-118 MG, 500 nM, repeats, read-out: Cell viability %
  viability at 0.5 µM: 64%
U-118 MG cells; Homo sapiens, U-118-MG, U-118 MG, 750 nM, repeats, read-out: Cell viability %
  viability at 0.75 µM: 70%
U-118 MG cells; Homo sapiens, U-118-MG, U-118 MG, 1 uM, repeats, read-out: Cell viability %
  viability at 1 µM: 84.1%
U-118 MG cells; Homo sapiens, U-118-MG, U-118 MG, 2.5 uM, repeats, read-out: Cell viability %
  viability at 2.5 µM: 70.7%
U-118 MG cells; Homo sapiens, U-118-MG, U-118 MG, 5 uM, repeats, read-out: Cell viability %
  viability at 5 µM: 62.1%
U-118 MG cells; Homo sapiens, U-118-MG, U-118 MG, 7.5 uM, repeats, read-out: Cell viability %
  viability at 7.5 µM: 66.3%
U-118 MG cells; Homo sapiens, U-118-MG, U-118 MG, 10 uM, repeats, read-out: Cell viability %
  viability at 10 µM: 57.9%
U-118 MG cells; Homo sapiens, U-118-MG, U-118 MG, 15 uM, repeats, read-out: Cell viability %
  viability at 15 µM: 51.1%
U-118 MG cells; Homo sapiens, U-118-MG, U-118 MG, 20 uM, repeats, read-out: Cell viability %
  viability at 20 µM: 39.1%
U-118 MG cells; Homo sapiens, U-118-MG, MTT
  IC50: > 20 µM
U-118 MG cells; U-118 MG, 100 nM, repeats, 0.1 µM
  Cell viability %: 87.05%
U-118 MG cells; U-118 MG, 500 nM, repeats, 0.5 µM
  Cell viability %: 68.29% and 66.76%
U-118 MG cells; U-118 MG, 750 nM, repeats, 0.75 µM
  Cell viability %: 77.02% and 67.38%
U-118 MG cells; U-118 MG, 1 uM, repeats
  Cell viability %: 82.08% and 80.29%
U-118 MG cells; U-118 MG, 2.5 uM, repeats
  Cell viability %: 64.2773% and 70.34%
U-118 MG cells; U-118 MG, 5 uM, repeats
  Cell viability %: 65.5% and 62.23%
U-118 MG cells; U-118 MG, 7.5 uM, repeats
  Cell viability %: 62.32% and 65.79%
U-118 MG cells; U-118 MG, 10 uM, repeats
  Cell viability %: 65.41% and 61.07%
U-118 MG cells; U-118 MG, 15 uM, repeats
  Cell viability %: 55.67% and 56.45%
U-118 MG cells; U-118 MG, 20 uM, repeats
  Cell viability %: 44.6621% and 48.66%
H-1299 cells; H-1299, 100 nM, 48 h, repeats, 0.1 µM
  Cell viability %: 61.37% and 71.3%
H-1299 cells; H-1299, 500 nM, 48 h, repeats, 0.5 µM
  Cell viability %: 66.22% and 72.36%
H-1299 cells; H-1299, 750 nM, 48 h, repeats, 0.75 µM
  Cell viability %: 70.74% and 81.49%
H-1299 cells; H-1299, 1 uM, 48 h, repeats, 1 µM
  Cell viability %: 69.87% and 82.47%
H-1299 cells; H-1299, 2.5 uM, 48 h, repeats, 2.5 µM
  Cell viability %: 66.9068% and 60.82%
H-1299 cells; H-1299, 5 uM, 48 h, repeats, 5 µM
  Cell viability %: 53.26% and 57.69%
H-1299 cells; H-1299, 7.5 uM, 48 h, repeats, 7.5 µM
  Cell viability %: 36.17% and 50.75%
H-1299 cells; H-1299, 10 uM, 48 h, repeats, 10 µM
  Cell viability %: 38.48% and 47.35%
H-1299 cells; H-1299, 15 uM, 48 h, repeats, 15 µM
  Cell viability %: 39.64% and 37.79%
H-1299 cells; H-1299, 20 uM, 48 h, repeats, 20 µM
  Cell viability %: 32.04% and 28.82%
H-1299 cells; Homo sapiens, NCI-H1299, 48 h, H-1299, 100 nM, repeats, read-out: Cell viability %
  viability at 0.1 µM: 77.6%
H-1299 cells; Homo sapiens, NCI-H1299, 48 h, H-1299, 500 nM, repeats, read-out: Cell viability %
  viability at 0.5 µM: 71.5%
H-1299 cells; Homo sapiens, NCI-H1299, 48 h, H-1299, 750 nM, repeats, read-out: Cell viability %
  viability at 0.75 µM: 74.1%
H-1299 cells; Homo sapiens, NCI-H1299, 48 h, H-1299, 1 uM, repeats, read-out: Cell viability %
  viability at 1 µM: 72.4%
H-1299 cells; Homo sapiens, NCI-H1299, 48 h, H-1299, 2.5 uM, repeats, read-out: Cell viability %
  viability at 2.5 µM: 73.2%
H-1299 cells; Homo sapiens, NCI-H1299, 48 h, H-1299, 5 uM, repeats, read-out: Cell viability %
  viability at 5 µM: 53.2%
H-1299 cells; Homo sapiens, NCI-H1299, 48 h, H-1299, 7.5 uM, repeats, read-out: Cell viability %
  viability at 7.5 µM: 42.3%
H-1299 cells; Homo sapiens, NCI-H1299, 48 h, H-1299, 10 uM, repeats, read-out: Cell viability %
  viability at 10 µM: 45.5%
H-1299 cells; Homo sapiens, NCI-H1299, 48 h, H-1299, 15 uM, repeats, read-out: Cell viability %
  viability at 15 µM: 39.8%
H-1299 cells; Homo sapiens, NCI-H1299, 48 h, H-1299, 20 uM, repeats, read-out: Cell viability %
  viability at 20 µM: 28.6%
H-1299 cells; Homo sapiens, NCI-H1299, MTT, 48 h
  IC50: 8.94 µM
[1]; HF-P4, 500 nM
  viability at 48 h, 0.5 µM: 120%
[1]; HF-P4, 750 nM
  viability at 48 h, 0.75 µM: 100%
[1]; HF-P4, 1 uM
  viability at 48 h, 1 µM: 107%
[1]; HF-P4, 5 uM
  viability at 48 h, 5 µM: 104%
[1]; HF-P4, 7.5 uM
  viability at 48 h, 7.5 µM: 84.4%
[1]; HF-P4, 10 uM
  viability at 48 h, 10 µM: 83.1%
[1]; HF-P4, 15 uM
  viability at 48 h, 15 µM: 69.4%
[1]; HF-P4, 20 uM
  viability at 48 h, 20 µM: 60.3%
HF-P4 cells; HF-P4, 100 nM, 0.1 µM
  Cell viability %: 112.667% and 100.0956% and 124.6811%
HF-P4 cells; HF-P4, 500 nM, 0.5 µM
  Cell viability %: 121.1654% and 117.1851%
HF-P4 cells; HF-P4, 750 nM, 0.75 µM
  Cell viability %: 106.3799% and 108.6149%
HF-P4 cells; HF-P4, 1 uM, 1 µM
  Cell viability %: 107.7419% and 92.48%
HF-P4 cells; HF-P4, 2.5 uM, 2.5 µM
  Cell viability %: 91.9392% and 112.4492% and 91.41%
HF-P4 cells; HF-P4, 5 uM, 5 µM
  Cell viability %: 91.3% and 88.77%
HF-P4 cells; HF-P4, 7.5 uM, 7.5 µM
  Cell viability %: 87.79% and 98.14%
HF-P4 cells; HF-P4, 10 uM, 10 µM
  Cell viability %: 82.92% and 77.13%
HF-P4 cells; HF-P4, 15 uM, 15 µM
  Cell viability %: 82.13% and 69.58%
HF-P4 cells; HF-P4, 20 uM, 20 µM
  Cell viability %: 51.8655% and 56.81%
HF-P4 cells; Homo sapiens, MTT
  IC50: > 20 µM
